Reference: ChEMBL document CHEMBL3044799, “Biological activity of the succinate dehydrogenase inhibitor fluopyram against Botrytis cinerea and fungal baseline sensitivity” (Pest Manag Sci, 2012)
In brackets after ≈: the same amount, converted by molar mass. Activity calls are given as the source filed them. The calls are words filed in the database; no cut-off is given here.

Key:
Botrytis cinerea [1] = assay: Protective antifungal activity against Botryotinia fuckeliana inoculated in fungicide-applied strawberry fruit assessed as disease severity measuring lesion diameter at 100 ug AI/ml applied 24 hr prior inoculation; assay type: functional
Botrytis cinerea [2] = assay: Antifungal activity against Botryotinia fuckeliana grown on succinate medium assessed as inhibition of spore germination at 5 ug/ml after 10 days; assay type: functional, organism-based
Botrytis cinerea [3] = assay: Curative antifungal activity against Botryotinia fuckeliana inoculated in strawberry fruit assessed as disease severity measuring lesion diameter at 1 ug AI/ml applied 96 hr post-inoculation; assay type: functional
Botrytis cinerea [4] = assay: Curative antifungal activity against Botryotinia fuckeliana inoculated in strawberry fruit assessed as disease control efficacy at 50 ug AI/ml applied 96 hr post-inoculation relative to control; assay type: functional
Botrytis cinerea [5] = assay: Protective antifungal activity against Botryotinia fuckeliana inoculated in fungicide-applied strawberry fruit assessed as disease control efficacy at 1 ug AI/ml applied 24 hr prior inoculation relative to control; assay type: functional
Botrytis cinerea [6] = assay: Protective antifungal activity against Botryotinia fuckeliana inoculated in fungicide-applied strawberry fruit assessed as disease control efficacy at 100 ug AI/ml applied 48 hr prior inoculation relative to control; assay type: functional
Botrytis cinerea [7] = assay: Protective antifungal activity against Botryotinia fuckeliana inoculated in fungicide-applied strawberry fruit assessed as disease control efficacy at 100 ug AI/ml applied 96 hr prior-inoculation relative to control; assay type: functional
Botrytis cinerea [8] = assay: Curative antifungal activity against Botryotinia fuckeliana inoculated in strawberry fruit assessed as disease control efficacy at 10 ug AI/ml applied 24 hr post-inoculation relative to control; assay type: functional
Botrytis cinerea [9] = assay: Curative antifungal activity against Botryotinia fuckeliana inoculated in strawberry fruit assessed as disease control efficacy at 50 ug AI/ml applied 48 hr post-inoculation relative to control; assay type: functional
Botrytis cinerea [10] = assay: Protective antifungal activity against Botryotinia fuckeliana inoculated in fungicide-applied strawberry fruit assessed as disease control efficacy at 10 ug AI/ml applied 96 hr prior-inoculation relative to control; assay type: functional
Botrytis cinerea [11] = assay: Antifungal activity against Botryotinia fuckeliana grown on YBA agar assessed as inhibition of mycelial growth at 5 ug/ml after 10 days; assay type: functional, organism-based
Botrytis cinerea [12] = assay: Protective antifungal activity against Botryotinia fuckeliana inoculated in fungicide-applied strawberry fruit assessed as disease control efficacy at 10 ug AI/ml applied 48 hr prior inoculation relative to control; assay type: functional
Botrytis cinerea [13] = assay: Antifungal activity against Botryotinia fuckeliana grown on succinate medium assessed as inhibition of mycelial growth at 10 ug/ml after 10 days; assay type: functional, organism-based
Botrytis cinerea [14] = assay: Antifungal activity against Botryotinia fuckeliana obtained from cucumber isolate assessed as inhibition of spore germ tube growth; assay type: functional, organism-based
Botrytis cinerea [15] = assay: Protective antifungal activity against Botryotinia fuckeliana inoculated in fungicide-applied strawberry fruit assessed as disease severity measuring lesion diameter at 1 ug AI/ml applied 24 hr prior inoculation; assay type: functional
Botrytis cinerea [16] = assay: Protective antifungal activity against Botryotinia fuckeliana inoculated in fungicide-applied strawberry fruit assessed as disease severity measuring lesion diameter at 1 ug AI/ml applied 96 hr prior-inoculation; assay type: functional
Botrytis cinerea [17] = assay: Curative antifungal activity against Botryotinia fuckeliana inoculated in strawberry fruit assessed as disease severity measuring lesion diameter at 50 ug AI/ml applied 24 hr post-inoculation; assay type: functional
Botrytis cinerea [18] = assay: Curative antifungal activity against Botryotinia fuckeliana inoculated in strawberry fruit assessed as disease severity measuring lesion diameter at 10 ug AI/ml applied 96 hr post-inoculation; assay type: functional
Botrytis cinerea [19] = assay: Protective antifungal activity against Botryotinia fuckeliana inoculated in fungicide-applied strawberry fruit assessed as disease severity measuring lesion diameter at 100 ug AI/ml applied 48 hr prior inoculation; assay type: functional
Botrytis cinerea [20] = assay: Antifungal activity against Botryotinia fuckeliana grown on water agar assessed as inhibition of spore germination at 1 ug/ml after 10 days; assay type: functional, organism-based
Botrytis cinerea [21] = assay: Antifungal activity against Botryotinia fuckeliana grown on succinate medium assessed as inhibition of germ tube growth at 5 ug/ml after 10 days; assay type: functional, organism-based
Botrytis cinerea [22] = assay: Antifungal activity against Botryotinia fuckeliana assessed as inhibition of spore germination at 0.001 to 10 ug/ml after 10 days; assay type: functional, organism-based
Botrytis cinerea [23] = assay: Curative antifungal activity against Botryotinia fuckeliana inoculated in strawberry fruit assessed as disease control efficacy at 50 ug AI/ml applied 24 hr post-inoculation relative to control; assay type: functional
Botrytis cinerea [24] = assay: Protective antifungal activity against Botryotinia fuckeliana inoculated in fungicide-applied strawberry fruit assessed as disease control efficacy at 10 ug AI/ml applied 24 hr prior inoculation relative to control; assay type: functional
Botrytis cinerea [25] = assay: Antifungal activity against Botryotinia fuckeliana assessed as inhibition of germ tube growth at 0.001 to 10 ug/ml after 10 days; assay type: functional, organism-based
Botrytis cinerea [26] = assay: Curative antifungal activity against Botryotinia fuckeliana inoculated in strawberry fruit assessed as disease control efficacy at 100 ug AI/ml applied 24 hr post-inoculation relative to control; assay type: functional
Botrytis cinerea [27] = assay: Protective antifungal activity against Botryotinia fuckeliana inoculated in fungicide-applied strawberry fruit assessed as disease severity measuring lesion diameter at 10 ug AI/ml applied 96 hr prior-inoculation; assay type: functional
Botrytis cinerea [28] = assay: Antifungal activity against Botryotinia fuckeliana obtained from kiwi fruit isolate assessed as inhibition of spore germ tube growth; assay type: functional, organism-based
Botrytis cinerea [29] = assay: Antifungal activity against Botryotinia fuckeliana obtained from tomato isolate assessed as inhibition of spore germ tube growth; assay type: functional, organism-based
Botrytis cinerea [30] = assay: Curative antifungal activity against Botryotinia fuckeliana inoculated in strawberry fruit assessed as disease control efficacy at 100 ug AI/ml applied 96 hr post-inoculation relative to control; assay type: functional
Botrytis cinerea [31] = assay: Protective antifungal activity against Botryotinia fuckeliana inoculated in fungicide-applied strawberry fruit assessed as disease control efficacy at 50 ug AI/ml applied 24 hr prior inoculation relative to control; assay type: functional
Botrytis cinerea [32] = assay: Antifungal activity against Botryotinia fuckeliana grown on YBA agar assessed as inhibition of germ tube growth at 1 ug/ml after 10 days; assay type: functional, organism-based
Botrytis cinerea [33] = assay: Curative antifungal activity against Botryotinia fuckeliana inoculated in strawberry fruit assessed as disease severity measuring lesion diameter at 100 ug AI/ml applied 48 hr post-inoculation; assay type: functional
Botrytis cinerea [34] = assay: Curative antifungal activity against Botryotinia fuckeliana inoculated in strawberry fruit assessed as disease severity measuring lesion diameter at 50 ug AI/ml applied 96 hr post-inoculation; assay type: functional
Botrytis cinerea [35] = assay: Protective antifungal activity against Botryotinia fuckeliana inoculated in fungicide-applied strawberry fruit assessed as disease control efficacy at 50 ug AI/ml applied 48 hr prior inoculation relative to control; assay type: functional
Botrytis cinerea [36] = assay: Antifungal activity against Botryotinia fuckeliana grown on YBA agar assessed as inhibition of spore germination at 1 ug/ml after 10 days; assay type: functional, organism-based
Botrytis cinerea [37] = assay: Curative antifungal activity against Botryotinia fuckeliana inoculated in strawberry fruit assessed as disease control efficacy at 10 ug AI/ml applied 96 hr post-inoculation relative to control; assay type: functional
Botrytis cinerea [38] = assay: Curative antifungal activity against Botryotinia fuckeliana inoculated in strawberry fruit assessed as disease severity measuring lesion diameter at 10 ug AI/ml applied 48 hr post-inoculation; assay type: functional
Botrytis cinerea [39] = assay: Curative antifungal activity against Botryotinia fuckeliana inoculated in strawberry fruit assessed as disease control efficacy at 1 ug AI/ml applied 24 hr post-inoculation relative to control; assay type: functional
Botrytis cinerea [40] = assay: Protective antifungal activity against Botryotinia fuckeliana inoculated in fungicide-applied strawberry fruit assessed as disease control efficacy at 100 ug AI/ml applied 24 hr prior inoculation relative to control; assay type: functional

## O=C(NCCc1ncc(C(F)(F)F)cc1Cl)c1ccccc1C(F)(F)F [FLUOPYRAM]
Botrytis cinerea [1]
  Activity: 0 mm
Botrytis cinerea [2]
  growth inhibition (GI): Active
Botrytis cinerea [3]
  Activity: 11.8 mm
Botrytis cinerea [4]
  Efficacy: 45.1%
Botrytis cinerea [5]
  Efficacy: 66.4%
Botrytis cinerea [6]
  Efficacy: 95.9%
Botrytis cinerea [7]
  Efficacy: 93.9%
Botrytis cinerea [8]
  Efficacy: 69.7%
Botrytis cinerea [9]
  Efficacy: 82.9%
Botrytis cinerea [10]
  Efficacy: 66.3%
Botrytis cinerea [11]
  growth inhibition (GI): Active
Botrytis cinerea [12]
  Efficacy: 70.8%
Botrytis cinerea [13]
  growth inhibition (GI): inactive
Botrytis cinerea [14]
  EC50: 0.1 µg/mL (≈ 0.252 µM)
Botrytis cinerea [15]
  Activity: 6.3 mm
Botrytis cinerea [16]
  Activity: 8.7 mm
Botrytis cinerea [17]
  Activity: 4.2 mm
Botrytis cinerea [18]
  Activity: 11.1 mm
Botrytis cinerea [19]
  Activity: 1.1 mm
Botrytis cinerea [20]
  growth inhibition (GI): Active
Botrytis cinerea [21]
  growth inhibition (GI): Active
Botrytis cinerea [22]
  growth inhibition (GI): Active
Botrytis cinerea [23]
  Efficacy: 77.3%
Botrytis cinerea [24]
  Efficacy: 77.2%
Botrytis cinerea [25]
  growth inhibition (GI): Active
Botrytis cinerea [26]
  Efficacy: 79.3%
Botrytis cinerea [27]
  Activity: 4.2 mm
Botrytis cinerea [28]
  EC50: 0.1 µg/mL (≈ 0.252 µM)
Botrytis cinerea [29]
  EC50: 0.11 µg/mL (≈ 0.277 µM)
Botrytis cinerea [30]
  Efficacy: 62.5%
Botrytis cinerea [31]
  Efficacy: 93.9%
Botrytis cinerea [32]
  growth inhibition (GI): Active
Botrytis cinerea [33]
  Activity: 1.4 mm
Botrytis cinerea [34]
  Activity: 10.3 mm
Botrytis cinerea [35]
  Efficacy: 87.7%
Botrytis cinerea [36]
  growth inhibition (GI): Active
Botrytis cinerea [37]
  Efficacy: 41.1%
Botrytis cinerea [38]
  Activity: 3.5 mm
Botrytis cinerea [39]
  Efficacy: 53%
Botrytis cinerea [40]
  Efficacy: 100%
